Measured values taken from PubChem BioAssay AID266 (DTP/NCI, 2004).
Where “and” joins values, the source holds several entries; their conditions need not be identical. Identical values can stand only once. Records with an inconclusive call do not appear. Starred links: 1 amine or outer side, 2 acyl side, 3 side chain; linkers in the order of their positions; H or OH if unused. Positions of bridges follow the written chain, without caps; N, C: chain ends. Non-standard residues stand in square brackets, D forms with d. Residues, ends and D or L forms follow the SMILES beside them. Chains are numbered I, II in the order given. Actinocin(9to1) = Cc1c2oc3c(C)ccc(C(=O)[*:1])c3nc-2c(C(=O)[*:2])c(N)c1=O; aThr = C[C@H](O)[C@H](N)C(=O)O; NMeV = CN[C@H](C(=O)O)C(C)C; Sar = CNCC(=O)O

System: Nude mice, LX-1 lung xenograft intrarenal, tumor weight T/C
Test: NCI In Vivo Anticancer Drug Screen. Data for tumor model Human Lung LX-1 Xenograft (intrarenal inoculation) in NU/NU BALB/C (nude) mice
Conditions: endpoint: mean tumor weight change, higher = larger tumour
Protocol: The antitumor activity of compounds was measured in mice bearing transplantable tumors. Survival or tumor size were measured and the results are expressed as the measurement made in the treated group (T) divided by the measurement made in the vehicle treated control group (C). The tumor model used in this assay is Human Lung LX-1 Xenograft (intrarenal inoculation) in NU/NU BALB/C (nude) mice

[1] = dose: 200.0 mg/kg/injection, schedule: Q01DX010 (sc), vehicle: saline
[2] = dose: 400.0 mg/kg/injection, schedule: Q01DX010 (sc), vehicle: saline

Compound: O=NN(CCCl)C(=O)NC1CCCCC1
- T/C (dose: 12.5 mg/kg/injection, schedule: Q04DX003 (sc), vehicle: Klucel (hydroxypropylcellulose) (HPC)): 47 % of control
- T/C (dose: 25.0 mg/kg/injection, schedule: Q04DX003 (sc), vehicle: Klucel (hydroxypropylcellulose) (HPC)): 29 % of control
- T/C (dose: 26.66 mg/kg/injection, schedule: Q04DX003 (sc), vehicle: saline with Tween-80): 4 % of control
- T/C (dose: 50.0 mg/kg/injection, schedule: Q04DX003 (sc), vehicle: Klucel (hydroxypropylcellulose) (HPC)): -25 % of control
- T/C (dose: 53.33 mg/kg/injection, schedule: Q04DX003 (sc), vehicle: saline with Tween-80): -73 % of control
- T/C (dose: 100.0 mg/kg/injection, schedule: Q04DX003 (sc), vehicle: Klucel (hydroxypropylcellulose) (HPC)): 4 % of control

Compound: COc1cccc2c1C(=O)c1c(O)c3c(c(O)c1C2=O)C[C@@](O)(C(C)=O)C[C@@H]3OC1CC(N)C(O)C(C)O1 (stereo not given in full)
- T/C (dose: 2.0 mg/kg/injection, schedule: Q01DX010 (sc), vehicle: saline): 109 % of control
- T/C (dose: 4.0 mg/kg/injection, schedule: Q01DX010 (sc), vehicle: saline): 153 % of control
- T/C (dose: 8.0 mg/kg/injection, schedule: Q01DX010 (sc), vehicle: saline): 31 % of control

Compound: N/C=N/O
- T/C [1]: 180 % of control
- T/C [2]: 161 % of control

Compound: C1CN2CN3CCN(CN1C3)C2
- T/C (dose: 50.0 mg/kg/injection, schedule: Q01DX010 (sc), vehicle: saline): 68 % of control
- T/C [1]: 48 % of control
- T/C [2]: 23 % of control

Compound: Cc1c(-c2ccc(-c3ccccc3F)cc2)nc2ccc(F)cc2c1C(=O)O
- T/C (dose: 6.9 mg/kg/injection, schedule: Q01DX009 (ip), vehicle: water): 7 % of control and 13 % of control and 31 % of control
- T/C (dose: 19.2 mg/kg/injection, schedule: Q01DX009 (ip), vehicle: water): 5 % of control and 14 % of control and 21 % of control
- T/C (dose: 32.0 mg/kg/injection, schedule: Q01DX009 (ip), vehicle: water): 15 % of control and 17 % of control

Compound: O=C1N[C@H]2[C@H](CS[C@H]2CCCCC(=O)N(CCP(c2ccccc2)c2ccccc2)CCP(c2ccccc2)c2ccccc2)N1
- T/C (dose: 300.0 mg/kg/injection, schedule: Q04DX003 (sc), vehicle: Klucel (hydroxypropylcellulose) (HPC)): 84 % of control
- T/C (dose: 600.0 mg/kg/injection, schedule: Q04DX003 (sc), vehicle: Klucel (hydroxypropylcellulose) (HPC)): 64 % of control
- T/C (dose: 1200.0 mg/kg/injection, schedule: Q04DX003 (sc), vehicle: Klucel (hydroxypropylcellulose) (HPC)): 87 % of control
- T/C (dose: 2400.0 mg/kg/injection, schedule: Q04DX003 (sc), vehicle: Klucel (hydroxypropylcellulose) (HPC)): 71 % of control

Compound: Cc1c2oc3c(C)ccc(C(=O)N[C@@H]4C(=O)N[C@H](C(C)C)C(=O)N5CCC[C@H]5C(=O)N(C)CC(=O)N(C)[C@@H](C(C)C)C(=O)O[C@H]4C)c3nc-2c(C(=O)N[C@@H]2C(=O)N[C@H](C(C)C)C(=O)N3CCC[C@H]3C(=O)N(C)CC(=O)N(C)[C@@H](C(C)C)C(=O)O[C@H]2C)c(N)c1=O (I: [aThr][dV]P[Sar][NMeV] / II: [aThr][dV]P[Sar][NMeV]; ester I:1-I:C, II:1-II:C; linker I:N-II:N via Actinocin(9to1))
- T/C (dose: 50.0 micrograms/kg/injection, schedule: Q01DX010 (sc), vehicle: saline): 35 % of control
- T/C (dose: 100.0 micrograms/kg/injection, schedule: Q01DX010 (sc), vehicle: saline): 11 % of control

Compound: CCN(CC)Cc1cc2[nH]c3c4ccc(Cl)cc4ncc3c2cc1OC
- T/C (dose: 75.0 mg/kg/injection, schedule: Q04DX003 (sc), vehicle: saline with Tween-80): 73 % of control
- T/C (dose: 150.0 mg/kg/injection, schedule: Q04DX003 (sc), vehicle: saline with Tween-80): 71 % of control
- T/C (dose: 300.0 mg/kg/injection, schedule: Q04DX003 (sc), vehicle: saline with Tween-80): 86 % of control

Compound: Cc1cc(=NO)cc(C)n1O
- T/C (dose: 300.0 mg/kg/injection, schedule: Q04DX003 (sc), vehicle: distilled water + alcohol): 102 % of control
- T/C (dose: 600.0 mg/kg/injection, schedule: Q04DX003 (sc), vehicle: distilled water + alcohol): 102 % of control
- T/C (dose: 1200.0 mg/kg/injection, schedule: Q04DX003 (sc), vehicle: distilled water + alcohol): 60 % of control

Compound: CCCCNc1ccc2nnc(C)n2n1
- T/C (dose: 150.0 mg/kg/injection, schedule: Q04DX003 (ip), vehicle: DMSO): 99 % of control

Compound: CCCCCc1cc(/C=C2/N=C(c3ccc[nH]3)C=C2OC)[nH]c1C
- T/C (dose: 8.0 mg/kg/injection, schedule: Q04DX003 (sc), vehicle: saline with Tween-80): 73 % of control
- T/C (dose: 16.0 mg/kg/injection, schedule: Q04DX003 (sc), vehicle: saline with Tween-80): 54 % of control
- T/C (dose: 32.0 mg/kg/injection, schedule: Q04DX003 (sc), vehicle: saline with Tween-80): 59 % of control
- T/C (dose: 64.0 mg/kg/injection, schedule: Q04DX003 (sc), vehicle: saline with Tween-80): 67 % of control

Compound: CN(C)CCC(=O)C(=Cc1ccc(O)cc1)C(=O)CCN(C)C
- T/C (dose: 75.0 mg/kg/injection, schedule: Q04DX003 (ip), vehicle: saline): 95 % of control
- T/C (dose: 150.0 mg/kg/injection, schedule: Q04DX003 (ip), vehicle: saline): 116 % of control

Compound: O=P1(N(CCCl)CCCl)NCCCO1 (stereo not given)
- T/C (dose: 25.0 mg/kg/injection, schedule: Q04DX003 (ip), vehicle: saline): 101 % of control
- T/C (dose: 50.0 mg/kg/injection, schedule: Q04DX003 (ip), vehicle: saline): 92 % of control
- T/C (dose: 100.0 mg/kg/injection, schedule: Q04DX003 (ip), vehicle: saline): 77 % of control
- T/C (dose: 200.0 mg/kg/injection, schedule: Q04DX003 (ip), vehicle: saline): 50 % of control
